According to patent US12077503B2, “Substituted cyclic amides and their use as herbicides” (FMC CORPORATION, priority 2015, dated 2024):

Experiments:
Assay type in all cases: in vivo
[1] = test system: Kochia (Kochia scoparia); assay: Test A preemergence; conditions: Bassia scoparia, pre-emergence, 240 h, 0 to 100 scale where 0 is no effect and 100 is complete control, read-out: Kochia plant response rating
Procedure, shortened: (§1)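 Ratings of 0 (no effect) to 100 (complete control) come from visual comparison with untreated controls roughly 10 d after treatment. Test chemicals, formulated in a non-phytotoxic solvent mixture with surfactant, were applied either as a preemergence directed soil spray on seeded soil or postemergence to one- to two-leaf plants 2 to 10 cm tall.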

[2] = test system: barnyardgrass (Echinochloa crus-galli); assay: Test A preemergence; conditions: Echinochloa crus-galli, pre-emergence, 240 h, 0 to 100 scale where 0 is no effect and 100 is complete control, read-out: Barnyardgrass plant response rating
Procedure, shortened: as §1

[3] = test system: giant foxtail (Setaria faberii); assay: Test A preemergence; conditions: Setaria faberi, pre-emergence, 240 h, 0 to 100 scale where 0 is no effect and 100 is complete control, read-out: Foxtail, Giant plant response rating
Procedure, shortened: as §1

[4] = test system: pigweed (Amaranthus retroflexus); assay: Test A preemergence; conditions: Amaranthus retroflexus, pre-emergence, 240 h, 0 to 100 scale where 0 is no effect and 100 is complete control, read-out: Pigweed plant response rating
[5] = test system: ragweed (common ragweed, Ambrosia elatior); assay: Test A preemergence; conditions: Ambrosia artemisiifolia, pre-emergence, 240 h, 0 to 100 scale where 0 is no effect and 100 is complete control, read-out: Ragweed plant response rating
Procedure, shortened: as §1

[6] = test system: ryegrass, Italian (Italian ryegrass, Lolium multiflorum); assay: Test A preemergence; conditions: Lolium multiflorum, pre-emergence, 240 h, 0 to 100 scale where 0 is no effect and 100 is complete control, read-out: Ryegrass, Italian plant response rating
Procedure, shortened: as §1

[7] = test system: Galium (catchweed bedstraw, Galium aparine); assay: Test A postemergence; conditions: Galium, post-emergence, 240 h, read-out: Galium plant response rating (0 to 100 scale)
Procedure, shortened: as §1

[8] = test system: Kochia (Kochia scoparia); assay: Test A postemergence; conditions: Bassia scoparia, post-emergence, 240 h, read-out: Kochia plant response rating (0 to 100 scale)
Procedure, shortened: as §1

[9] = test system: barnyardgrass (Echinochloa crus-galli); assay: Test A postemergence; conditions: Echinochloa crus-galli, post-emergence, 240 h, read-out: Barnyardgrass plant response rating (0 to 100 scale)
Procedure, shortened: as §1

[10] = test system: blackgrass (Alopecurus myosuroides); assay: Test A postemergence; conditions: Alopecurus myosuroides, post-emergence, 240 h, read-out: Blackgrass plant response rating (0 to 100 scale)
Procedure, shortened: as §1

[11] = test system: corn (Zea mays); assay: Test A postemergence; conditions: Zea mays, post-emergence, 240 h, read-out: Corn plant response rating (0 to 100 scale)
Procedure, shortened: as §1

[12] = test system: giant foxtail (Setaria faberii); assay: Test A postemergence; conditions: Setaria faberi, post-emergence, 240 h, read-out: Foxtail, Giant plant response rating (0 to 100 scale)
Procedure, shortened: as §1

[13] = test system: pigweed (Amaranthus retroflexus); assay: Test A postemergence; conditions: Amaranthus retroflexus, post-emergence, 240 h, read-out: Pigweed plant response rating (0 to 100 scale)
Procedure, shortened: as §1

[14] = test system: ragweed (common ragweed, Ambrosia elatior); assay: Test A postemergence; conditions: Ambrosia artemisiifolia, post-emergence, 240 h, read-out: Ragweed plant response rating (0 to 100 scale)
Procedure, shortened: as §1

[15] = test system: ryegrass, Italian (Italian ryegrass, Lolium multiflorum); assay: Test A postemergence; conditions: Lolium multiflorum, post-emergence, 240 h, read-out: Ryegrass, Italian plant response rating (0 to 100 scale)
Procedure, shortened: as §1

[16] = test system: wheat (Triticum aestivum); assay: Test A postemergence; conditions: Triticum aestivum, post-emergence, 240 h, Postemergence, 31 g ai/ha; 0 is no effect, 100 is complete control; read-out: Wheat plant response rating (0 to 100 scale)
Procedure, shortened: as §1

[17] = test system: barnyardgrass (Echinochloa crus-galli); assay: Test B flooded paddy test; conditions: Echinochloa crus-galli, 250 g ai/ha, Flood; 0 to 100 scale where 0 is no effect and 100 is complete control; read-out: Barnyardgrass plant response rating
Procedure, shortened: (§2)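 Response scored visually against untreated controls, 0 = no effect and 100 = complete control, 13–15 d after treatment in the greenhouse. Compounds added to paddy water held 3 cm above soil surface. Treatment given at 2-leaf stage.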

[18] = test system: ducksalad (Heteranthera limosa); assay: Test B flooded paddy test; conditions: Heteranthera limosa, 250 g ai/ha, Flood; 0 to 100 scale where 0 is no effect and 100 is complete control; read-out: Ducksalad plant response rating
Procedure, shortened: as §2

[19] = test system: rice (Oryra sativa); assay: Test B flooded paddy test; conditions: Oryza sativa, 250 g ai/ha, Flood; 0 to 100 scale where 0 is no effect and 100 is complete control; read-out: Rice plant response rating
Procedure, shortened: as §2

[20] = test system: sedge, umbrella (small-flower umbrella sedge, Cyperus difformis); assay: Test B flooded paddy test; conditions: Cyperus difformis, 250 g ai/ha, Flood; 0 to 100 scale where 0 is no effect and 100 is complete control; read-out: Sedge, Umbrella plant response rating
Procedure, shortened: as §2

[21] = 125 g ai/ha, preemergence, visual injury rating, approximately 10 d
[22] = 125 g ai/ha, postemergence, visual injury vs untreated controls after approx. 10 d, 0 = no effect, 100 = complete control
[23] = Postemergence, 31 g ai/ha, 0 is no effect, 100 is complete control

With `CN1C[C@H](c2ccc(Cl)c(F)c2)[C@@H](C(=O)Nc2ccc(F)c(F)c2F)C1=O` [Compound 1266] the pest or weed control at 31 g/ha ([1]; 31 g ai/ha, Preemergence) was 40%, the pest or weed control at 125 g/ha [1, 21] was 80% and the pest or weed control at 31 g/ha ([2]; 31 g ai/ha, Preemergence) was 80%. It also gave a pest or weed control at 125 g/ha [2, 21] of 90%, a pest or weed control at 31 g/ha ([3]; 31 g ai/ha, Preemergence) of 90% and a pest or weed control at 125 g/ha [3, 21] of 90%. The pest or weed control at 31 g/ha ([4]; 31 g ai/ha, Preemergence) was 20%, the pest or weed control at 125 g/ha [4, 21] was 80% and the pest or weed control at 31 g/ha ([5]; 31 g ai/ha, Preemergence) was 20%. For the same compound, the pest or weed control at 125 g/ha [5, 21] was 60%, the pest or weed control at 31 g/ha ([6]; 31 g ai/ha, Preemergence) was 0% and the pest or weed control at 125 g/ha [6, 21] was 40%. The pest or weed control at 125 g/ha [7, 22] was 60%, the pest or weed control at 31 g/ha [7, 23] was 50% and the pest or weed control at 125 g/ha [8, 22] was 70%. It also gave a pest or weed control at 31 g/ha [8, 23] of 30%, a pest or weed control at 125 g/ha [9, 22] of 90% and a pest or weed control at 31 g/ha [9, 23] of 90%. For the same compound, the pest or weed control at 125 g/ha [10, 22] was 60%, the pest or weed control at 31 g/ha [10, 23] was 20% and the plant injury at 125 g/ha [11, 22] was 90%. It also gave a plant injury at 31 g/ha [11, 23] of 90%, a pest or weed control at 125 g/ha [12, 22] of 80% and a pest or weed control at 31 g/ha [12, 23] of 80%. For the same compound, the pest or weed control at 125 g/ha [13, 22] was 70%, the pest or weed control at 31 g/ha [13, 23] was 20% and the pest or weed control at 125 g/ha [14, 22] was 50%. It also gave a pest or weed control at 31 g/ha [14, 23] of 0%, a pest or weed control at 125 g/ha [15, 22] of 70% and a pest or weed control at 31 g/ha [15, 23] of 20%. For the same compound, the plant injury at 31 g/ha [16] was 0%, the pest or weed control at 250 g/ha [17] was 60% and the pest or weed control at 250 g/ha [18] was 100%. The pest or weed control at 250 g/ha [19] was 50% and the pest or weed control at 250 g/ha [20] was 0%.
